According to US7575764B2, “Compositions comprising hypsizygus ulmarius extract” (ELC Management LLC, priority 2005, dated 2009):

Tests used:
[1] = system: IL-1β mediated adhesion of neutrophils; test: Inhibition of IL-1β mediated adhesion of neutrophils (PMN) to human dermal microvascular endothelial cells; format: cell-based
Description: Three samples identical to those in example 4 were tested for their ability to inhibit endothelial adhesion of neutrophils by interfering with the effects of IL-1β. These samples were tested at final concentrations of 0.1% and 1% (w/v). Neutrophil adhesion was inhibited dose dependently with all samples tested. Adhesion of PMN to human dermal microvascular cells is a required step in the recruitment of leukocytes into the site of infection or irritation and was modeled for this assay in the following manner. […] The PMN rich fraction was removed and RBC were lysed with hypotonic saline. The PMN were washed twice with Hank's balanced salt solution (HBSS) and then resuspended in 5.0 ml HBSS with ions supplemented with 0.4% bovine serum albumin (Sigma). The concentration of cells was adjusted to 10×106 PMN/ml. Collected PMNs were greater than 95% pure and 98% viable as assessed by the trypan blue exclusion assay. […] In preliminary experiments the optimum concentrations of stimulatory agents (IL-1β, 10 U/ml and TPA, 5 ng/ml) were determined. […] After 30-45 min, the wells were read in an ELISA reader (Bio-Tek Instruments Inc, Winooslei, Vt., USA) at 570 nm. The level of adherence was given as the mean optical density (OD) reading at an OD570 for wells containing endothelial cells plus PMN minus the mean OD570 of wells containing endothelial cells alone.

[2] = system: LTB4-mediated neutrophil chemotaxis; test: Inhibition of neutrophil (PMN) chemotaxis toward LTB4, Boyden chamber; format: cell-based, human
Description: Three test samples, identical to powder samples 1, 2 and 3 in Example 1, were assayed for their ability to inhibit neutrophil chemotaxis toward Leukotriene B4. The assay is designed to assess the ability of a material to inhibit the migration of polymorphonuclear leukocytes (PMN) toward a known chemotactic agent, LTB4. […] The PMN rich fraction was removed and red blood cells (RBC) were lysed with hypotonic saline. The PMN were washed twice with Hank's Balanced Salt Solution (HBSS) and then resuspended in 5.0 ml HBSS with ions supplemented with 0.4% bovine serum albumin (Sigma). The concentration of cells was adjusted to 10×106 PMN/ml. Collected PMNs were greater than 95% pure and 98% viable as assessed by the trypan blue exclusion assay. The assay was performed using the Boyden chamber apparatus with blind well chambers fitted with 5 μm pore size filters (Millipore). The apparatus consists of two vertical chambers separated by a filter that contains pores of a size chosen such that the holes are large enough for the cells to actively crawl through them but not so large that the cells can physically fall through into the lower chamber. […] The chemoattractant used in the present experiment was 0.125 nM LTB4. Following incubation at 37° C. for 90 min., under a humidified atmosphere with 5% CO2, the filters were fixed with propanol and stained with haematoxylin and eosin. The PMN chemotactic response was determined by the distance to the leading front and the number of cells that migrated to the front. The distance to the leading front was determined at 400× magnification by the distance the majority of the cells migrated through the filter. The results were expressed as the average number of cells per high powered field at the leading (migratory) front (PMN/HPF). In this assay, 0.5% caffeine was used as a positive control. A negative control, with no anti-chemotactic agent, was also used. The results, shown in Table 4, are the percent reduction in chemotactic activity compared to the negative control.

**Q.** Which results are given for `Cn1c(=O)c2c(ncn2C)n(C)c1=O` [caffeine]?
**A.** Percent reduction in adhesion activity compared to negative control ([1]; Example 5, 1.0% (w/v), IL-1β 10 U/ml): 64%; Percent reduction in adhesion activity compared to negative control ([1]; Example 8, positive control at 1.0% concentration): 47%; Percent reduction in chemotactic activity compared to the negative control ([2]; Example 2, 0.5% (w/v), 0.125 nM LTB4): 96%; Percent reduction in chemotactic activity compared to negative control ([2]; Example 4, 0.1% (w/v), 0.125 nM LTB4): 93%; Percent reduction in chemotactic activity compared to negative control ([2]; Example 6, concentration 0.5%): 94%; Percent reduction in chemotactic activity compared to negative control ([2]; Example 7, positive control at 0.5% concentration): 97%
